Key:
[1] = system: Influenza A virus; test: Antiviral activity against Influenza A/PR8/34(H1N1)) in dog MDCK cells; assay type: functional, organism-based; conditions: A/Puerto Rico/8/1934(H1N1)
[2] = system: Influenza A virus; test: Antiviral activity against Influenza (A/PR8/34(H1N1)); assay type: functional, organism-based; conditions: A/Puerto Rico/8/1934(H1N1)
[3] = Cytotoxicity against MDCK cells by MTT assay; assay type: cell-based, Canis lupus familiaris; conditions: dog
[4] = Selectivity, ratio of CC50 for dog MDCK cells to EC50 for Influenza (A/PR8/34(H1N1)) in MDCK cells
[5] = Selectivity, ratio of CC50 for dog MDCK cells to EC50 for Influenza (A/PR8/34(H1N1))

SMILES | EC50 [1] | EC50 [2] | CC50 [3] | Ratio CC50/EC50 [4] | Ratio CC50/EC50 [5]
CC(=O)Oc1cc(OC(C)=O)c2c(c1)O[C@H](c1cc(OC(C)=O)c(OC(C)=O)c(OC(C)=O)c1)[C@H](OC(=O)c1cc(OC(C)=O)c(OC(C)=O)c(OC(C)=O)c1)C2 | 77 µM | 8.49 µM |  |  | 
O=C(O[C@@H]1Cc2c(O)cc(O)cc2O[C@@H]1c1cc(O)c(O)c(O)c1)c1cc(O)c(O)c(O)c1 [EPIGALOCATECHIN GALLATE] | 94.6 µM | 0.391 µM | 275 µM | 2.91 | 703

Reference: ChEMBL document CHEMBL1157513, “Enhanced anti-influenza A virus activity of (-)-epigallocatechin-3-O-gallate fatty acid monoester derivatives: effect of alkyl chain length” (Bioorg Med Chem Lett, 2008)
